Source: PMC5524215 (Journal of clinical pharmacology, 2016)
Read-outs that look alike come from different tables or passages of the source. Where a SMILES comes first, the peptide text is derived from it.

Legend:
[1] = Single ascending dose pharmacokinetics of intravenous CN-105 in healthy adults
[2] = Safety and tolerability in healthy adult subjects; details: healthy adults, single 0.01-1.0 mg/kg and repeated 1 mg/kg i.v.
[3] = rodent, GLP, 5 mg/kg/dose four times per day (20 mg/kg/day) for 14 days; cited from earlier work
[4] = in vivo, iv
[5] = Repeated dose pharmacokinetics of intravenous CN-105; format: in vivo, human; details: for Ratio 2/1: AUCTAU2/AUCTAU1, repeated 1 mg/kg i.v. infusions over 30 min; for Ratio 13/1: AUCTAU13/AUCTAU1, repeated 1 mg/kg i.v. infusions over 30 min; for AUCTAU1 / AUCTAU2 / AUCTAU13: repeated 1 mg/kg i.v. infusions over 30 min; for AUCTAU2: dose 2; for AUCTAU13: dose 13
[6] = murine pharmacokinetics; cited from earlier work
[7] = beagle, GLP, 5 mg/kg/dose four times per day (20 mg/kg/day) for 14 days; cited from earlier work
[8] = healthy adults, 1 mg/kg i.v. every 6 h for 72 h

With `CC(=O)N[C@H](C(=O)N[C@@H](CO)C(=O)N[C@@H](CCCNC(=N)N)C(=O)N[C@@H](CCCNC(=N)N)C(=O)N[C@@H](CCCNC(=N)N)C(N)=O)C(C)C` [CN-105] (Ac-VSRRR-NH2; N-terminus and C-terminus assumed) the “observed half-life at higher doses” value ([1]; healthy adults, i.v., higher doses) was 3.6 h, the half-life ([1]; human, plasma, iv) was 3.5 h and the AUC(0-inf) ([1]; human, plasma, iv, 0.01 mg/kg) was 95.9 ± 20.2 ng·h/mL. For the same compound, the Cmax ([1]; human, plasma, iv, 0.01 mg/kg) was 35.7 ± 10.9 ng/mL, the Vd ([1]; human, plasma, iv, 0.01 mg/kg) was 29.8 ± 3.2 L and the clearance ([1]; human, plasma, iv, 0.01 mg/kg) was 150 mL/min. For the same compound, the AUC(0-inf) ([1]; human, plasma, iv, 0.03 mg/kg) was 281 ± 39.6 ng·h/mL, the Cmax ([1]; human, plasma, iv, 0.03 mg/kg) was 108 ± 25.5 ng/mL and the Vd ([1]; human, plasma, iv, 0.03 mg/kg) was 30.4 ± 8 L. For the same compound, the clearance ([1]; human, plasma, iv, 0.03 mg/kg) was 150 mL/min, the AUC(0-inf) ([1]; human, plasma, iv, 0.1 mg/kg) was 1130 ± 194 ng·h/mL and the Cmax ([1]; human, plasma, iv, 0.1 mg/kg) was 408 ± 129 ng/mL. It also gave a Vd ([1]; human, plasma, iv, 0.1 mg/kg) of 38.9 ± 12 L, a clearance ([1]; human, plasma, iv, 0.1 mg/kg) of 137 mL/min and an AUC(0-inf) ([1]; human, plasma, iv, 0.3 mg/kg) of 2670 ± 272 ng·h/mL. It also gave a Cmax ([1]; human, plasma, iv, 0.3 mg/kg) of 966 ± 209 ng/mL, a Vd ([1]; human, plasma, iv, 0.3 mg/kg) of 45.6 ± 11.2 L and a clearance ([1]; human, plasma, iv, 0.3 mg/kg) of 147 mL/min. The AUC(0-inf) ([1]; human, plasma, iv, 1 mg/kg) was 9550 ± 1280 ng·h/mL, the Cmax ([1]; human, plasma, iv, 1 mg/kg) was 3940 ± 507 ng/mL and the Vd ([1]; human, plasma, iv, 1 mg/kg) was 38.4 ± 8.1 L. The clearance ([1]; human, plasma, iv, 1 mg/kg) was 128 mL/min, the “changes in serial ECG, vital signs or clinical laboratory tests” value [2] was “No concerning changes were observed” and the “tolerability of repeated intravenous administration” value [3] was “well-tolerated”. It also gave a T1/2 ([4]; 0.01 mg/kg) of 2.3 ± 0.5, a T1/2 ([4]; 0.03 mg/kg) of 2.4 ± 0.5 and a T1/2 ([4]; 0.1 mg/kg) of 3.3 ± 0.6. For the same compound, the T1/2 ([4]; 0.3 mg/kg) was 3.6 ± .4, the T1/2 ([4]; 1 mg/kg) was 3.5 ± 0.3 and the “accumulation on repeated dosing” value ([5]; 1 mg/kg i.v. every 6 h for 72 h, judged by AUCTAU ratios between time points) was “no significant accumulation”. The “Ratio 2/1” value ([5]; geometric mean) was 1.1, the “Ratio 2/1” value ([5]; mean of subjects) was 1.1 and the “Ratio 2/1” value ([5]; median) was 1.1. The “Ratio 13/1” value ([5]; geometric mean) was 1.2, the “Ratio 13/1” value ([5]; mean of subjects) was 1.2 and the “Ratio 13/1” value ([5]; median) was 1.3. For the same compound, the “time at which trough concentrations reached a stable plateau” value [5, 8] was ≤ 20 h, the “time to steady state” value [5, 8] was ≤ 24 h and the half-life ([5]; human, plasma, iv, 1 mg/kg) was 3.6 h. The AUC(0-t) ([5]; human, plasma, iv, 1 mg/kg, AUCTAU1, repeated 1 mg/kg i.v. infusions over 30 min, dose 1, geometric mean) was 9540 ng·h/mL, the AUCTAU1 ([5]; dose 1, maximum among subjects) was 11431.3 and the AUCTAU1 ([5]; dose 1, median) was 9911.7. For the same compound, the AUCTAU1 ([5]; dose 1, minimum among subjects) was 7425.1, the AUCTAU2 ([5]; geometric mean) was 10506.5 and the AUCTAU2 ([5]; maximum among subjects) was 12581.6. It also gave an AUCTAU2 ([5]; median) of 10448.8, an AUCTAU2 ([5]; minimum among subjects) of 8990.5 and an AUCTAU13 ([5]; geometric mean) of 11328.6. It also gave an AUCTAU13 ([5]; maximum among subjects) of 14203.2, an AUCTAU13 ([5]; median) of 11600.4 and an AUCTAU13 ([5]; minimum among subjects) of 9382.1. The “half-life predicted by animal modeling” value [6] was 0.5 h and the “tolerability of repeated intravenous administration” value [7] was “well-tolerated”.
